{"source": "patent US20080166753A1", "about": "“Microbial Growth Assay” (University Technologies International Inc., priority 2004, published 2008)", "key": {"[1]": {"tested_on": "P. aeruginosa mutant strain 4G6 biofilm", "experiment": "Biofilm killing assessed by XTT absorbance, mutant strain 4G6", "format": "cell-based", "details": "strain 4G6 (contains gentamicin cassette), 48 h biofilm", "procedure": "(§1) Biofilm Growth Conditions. Isolates were propagated in Mueller-Hinton broth (MHB). Flasks containing liquid medium (20 ml) were inoculated with a loopful of cells from MHB agar plates containing freshly grown isolates, and incubated overnight in an orbital shaker (100 rpm) at 37° C. Cells were harvested and resuspended in MHB at a cellular density equivalent to 1.0×10^6 cells per milliliter. Biofilms were formed on the pegs of the Calgary Biofilm Device (CBD; MBE™ Biofilm Technologies, Ltd., Edmonton AB), described in Ceri et al. (Ceri et al., J. Clin. Microbiol., 37(6):1771-6, 1999). The device consists of 96 conical pegs attached to a plastic lid. […]\n(§2) Optimizing XTT Assay. In order to optimize the quantities of 2,3-bis[2-methyloxy-4-nitro-5-sulfophenyl]-2H-tetrazolium-5-carboxanilide (XTT; Sigma) and menadione required for quantifying biofilm metabolic activity, varying concentrations were tested. […] The concentration of menadione (2-methyl-1,4-naphthoquinone; Sigma), the electron-coupling agent, was varied to establish the optimal molarity in respect to maximal absorbance readings. […] The change in XTT absorbance at 490 nm was assessed spectrophotometerically using an automated microtiter plate reader. It was determined that 75 μM gave the optimal change in absorbance after 2 h (FIG. 7). […]\n(§3) Assessment of Biofilm Killing Kinetics Using XTT. […] XTT absorbance readings were taken at 2 h and then at 24 h. […]"}, "[2]": {"tested_on": "P. aeruginosa mutant strain TTD2 biofilm", "experiment": "Biofilm killing assessed by XTT absorbance, mutant strain TTD2", "format": "cell-based", "details": "strain TTD2 (contains gentamicin cassette), 48 h biofilm", "procedure": "as §1, §2, §3"}}, "note": "“Also recorded” adds a separate entry of the source.", "data": [{"substance": "gentamicin", "values": [{"measurement": "Susceptibility as assessed by XTT absorbance", "setting": "[1]", "result": "less susceptible; also recorded: decreased susceptibility"}, {"measurement": "Susceptibility as assessed by XTT absorbance", "setting": "[2]", "result": "less susceptible; also recorded: decreased susceptibility"}]}]}
